Measurements as given in patent publication US20100311708A1, “USE OF NOR-BILE ACIDS IN THE TREATMENT OF ARTERIOSCLEROSIS” (priority 2007, published 2010).

Experiments:
Assay type in all cases: in vivo
ApoE−/− mice [1] = test: Prevention of atherosclerosis in ApoE−/− mice by nor-UDCA in comparison to UDCA (Experiment 4); conditions: prevention study, 0.5% w/w in western chow diet for 12 weeks
From the text: (§1) ApoE-deficient mice as described in Experiment 1 were used.
ApoE−/− mice (n=15) were fed with normal diet for 8 weeks post natum and then segregated into three groups with each group comprising five mice. In the control group, the mice were fed with the western chow diet for additional 12 weeks. In the second group, the ApoE−/− mice were fed with a western chow diet comprising 0.5% w/w nor-UDCA for additional 12 weeks. Finally, in the third group, the ApoE−/− mice were fed with a western chow diet comprising 0.5% w/w UDCA for additional 12 weeks. Considering a food intake of 4 g/day of chow per mouse, this corresponds to 20 mg/day of nor-UDCA or UDCA, respectively, per mouse.
Thus, in this experimental prevention setup, the mice are fed with diet known to force atherosclerotic plaque formation together with either UDCA or nor-UDCA (mice of the second and third group) having preventive effects on the plaque formation. When compared to a control fed with western chow diet only, the preventive effects can be studied.
The experimental setup is depicted in FIG. 14(a).

ApoE−/− mice [2] = test: Treatment of ApoE−/− mice with nor-UDCA in comparison to UDCA (Experiment 3); conditions: for % plaques in the aortic arch (plaque area versus total area, en-face red oil): FIG. 12; for plaques in red-oil stained aortic valve cross-sections (histological analysis): FIG. 13 top
From the text: as §1
ApoE−/− mice (n=15) were fed with normal diet for 8 weeks post natum, followed by western chow diet (“high fat diet”) for another 8 weeks. The mice were then segregated into three groups with each group comprising five mice. In the control group, the mice were further fed with the western chow diet for additional four weeks. In the second group, the ApoE−/− mice were fed with a western chow diet comprising 0.5% w/w nor-UDCA for additional four weeks. Finally, in the third group, the ApoE−/− mice were fed with a western chow diet comprising 0.5% w/w UDCA for additional four weeks. Considering a food intake of 4 g/day of chow per mouse, this corresponds to 20 mg/day of nor-UDCA or UDCA, respectively, per mouse.
The experimental setup is depicted in FIG. 6.

ApoE−/− mice [3] = test: Treatment of ApoE−/− mice with nor-UDCA (Experiment 1); conditions: 0.5% w/w in western chow diet for 4 weeks after 8 weeks western chow diet, vs control
Experimental: In order to study the effects of nor-UDCA on atherosclerosis, ApoE-deficient mice were treated. To this end ApoE−/− mice as described in Piedrahita et. al. (PNAS, 1992, 89, 4471-4475) which carry the Apoe^tm1Unc mutation were back-crossed 10 times into the C57BL76J. ApoE-deficient mice can also be obtained from the Jackson Laboratory (Maine, US) with the strain name B6.129P2.-Apoe^tm1Unc/J(http://jaxmice.jax.org).
ApoE−/− mice (n=10) were fed with normal diet for 8 weeks post natum, followed by western chow diet for another 8 weeks. The western chow diet consists of 21% by weight fat, 1.5% by weight cholesterol and no cholic acid (“high fat diet”).
This type of western chow diet is known to force atherosclerotic plaque formation on the indicated time line in ApoE−/− mice. After eight weeks of being fed with western chow diet, the mice were segregated into two groups with each group comprising five mice. In the control group A, the mice were further fed with the western chow diet for additional four weeks. In the other group B, the ApoE−/− mice were fed with a western chow diet comprising 0.5% w/w nor-UDCA for additional four weeks. Considering a food intake of 4 g/day of chow per mouse, this corresponds to 20 mg/day of nor-UDCA per mouse.
The experimental setup is depicted in FIG. 1.

LDLR−/− mice = test: Treatment of LDLR−/− mice with nor-UDCA (Experiment 2); conditions: 0.5% w/w in western chow diet for 4 weeks after 8 weeks western chow diet; vs control; FIG. 5
From the text: In a second experiment (FIGS. 4 and 5), the effect of nor-UDCA in LDLR−/− mice that were raised on a western chow diet was investigated.
As for the ApoE-deficient mice, the LDLR-deficient mice are considered to be a bona-fide animal model of atherosclerosis development. If these mice are raised on a western chow diet they evolve typical symptoms of atherosclerosis involving atherosclerotic plaque formation in the aorta (FIG. 5).
LDLR−/− mice were produced as described in Ishebashi et. al. (J. Clin. Jnnvest., 1993, 92, 883-893). The 129-derived AB1 ES cell line was used. The strain was backcrossed to C57BL/6J mice for 10 generations. Ldlr^tm1Her/Ldlr^tm1Her involves: 129S7/SvEvBrd*C57BL/6. LDLR-deficient mice can also be obtained from the Jackson Laboratory (Maine, US) with the strain name B6.129S7-Ldlr^tm1Her/J (http://jaxmice.jax.org).
As in Experiment 1, ten mice being deficient in LDLR were raised on normal diet during the first 8 weeks post natum followed by the western chow diet for another eight weeks. Afterwards, the ten mice were separated into two groups for which the control group A received further feeding on a western chow diet for 4 weeks. In the test group B, the western chow diet of the following 4 weeks was supplemented with 0.5% w/w nor-UDCA. Considering a food intake of 4 g/day of chow per mouse, this corresponds to 20 mg/day of nor-UDCA per mouse. […]

[4] = treatment study, 0.5% w/w in western chow diet for 4 weeks

Row | SMILES | weight of the brown adipose tissue (ApoE−/− mice [1]; FIG. 18) | % plaques in the aortic arch (plaque area versus total area, en-face red oil) (ApoE−/− mice [2]; [4]) | plaques in red-oil stained aortic valve cross-sections (histological analysis) (ApoE−/− mice [2]; [4]) | hepatic triglyceride amounts, liver preparations stained with oil-red (histology) (ApoE−/− mice [1]; FIG. 15 a-c) | total serum cholesterol levels (ApoE−/− mice [1]; FIG. 17) | extent and size of atherosclerotic plaques, aorta en-face stained with red oil (ApoE−/− mice [1]; FIG. 19) | serum transaminase (alanin-amino-transferase) levels (ApoE−/− mice [1]; compared to control and UDCA, FIG. 16) | amount (weight) of white adipose tissue (ApoE−/− mice [1]; compared to control or UDCA-treated mice, FIG. 18) | hepatic triglyceride levels (quantification in liver homogenate) (ApoE−/− mice [1]; compared to control or UDCA-treated mice, FIG. 15 d) | sclerotic area versus the total aorta area (morphometric analysis) (ApoE−/− mice [1]; vs control, FIG. 20) | arteriosclerotic plaques in red-oil stained aorta cross-sections (histological analysis) (ApoE−/− mice [3]; 20 weeks post natum, FIG. 2) | sclerotic area versus the aorta area (morphometric analysis) (ApoE−/− mice [3]; FIG. 3) | number of hepatic neutrophil granulocytes (CD11b-positive cells in liver) (ApoE−/− mice [2]; 0.5% w/w in western chow diet for 4 weeks after 8 weeks western chow diet, FIG. 7) | expression level of p-JNK in liver tissue (Western blot) (ApoE−/− mice [2]; 0.5% w/w in western chow diet for 4 weeks after 8 weeks western chow diet, FIG. 8) | aortic valve plaque area versus total surface area (plaques in % of the surface area) (ApoE−/− mice [2]; treatment study, 0.5% w/w in western chow diet for 4 weeks, FIG. 13 quantification) | hepatic triglyceride levels (ApoE−/− mice [2]; treatment study, 0.5% w/w in western chow diet for 4 weeks, compared to control or UDCA-treated mice, FIG. 9) | serum transaminase (alanin-amino-transferase) levels (ApoE−/− mice [2]; treatment study, 0.5% w/w in western chow diet for 4 weeks, compared to control, FIG. 10) | total serum cholesterol levels (ApoE−/− mice [2]; treatment study, 0.5% w/w in western chow diet for 4 weeks, compared to control, FIG. 11) | extent and size of atherosclerotic plaque, aorta en-face stained with red oil (LDLR−/− mice)
1 | C[C@H](CCC(=O)O)[C@H]1CC[C@H]2[C@@H]3[C@@H](O)C[C@@H]4C[C@H](O)CC[C@]4(C)[C@H]3CC[C@]12C [UDCA, reference compound] | neither UDCA nor nor-UDCA had an influence | decreasing the percent of plaques | the amount of plaques is reduced |  |  |  |  |  |  |  |  |  |  |  |  |  |  |  | 
2 | C[C@H](CC(=O)O)[C@H]1CC[C@H]2[C@@H]3[C@@H](O)C[C@@H]4C[C@H](O)CC[C@]4(C)[C@H]3CC[C@]12C [nor-UDCA, 24-nor[3α,7β-dihydroxy-5β-cholan-23-oic] acid] | neither UDCA nor nor-UDCA had an influence | decreasing the percent of plaques | the amount of plaques is reduced | hepatic triglyceride amounts are decreased | does not seem to reduce serum cholesterol levels | significantly reduced | significantly reduces the serum transaminase levels | strong reduction of the amount of white adipose tissue | capable of significantly reducing the triglyceride-amount in the liver | significantly smaller | significantly reduced extent of these plaques | significantly smaller | clearly reduced | capable of downregulating the expression of p-JNK | significant reduction of said % plaques | capable of significantly reducing the triglyceride-amount in the liver | trend of reducing the serum transaminase levels | seems to be capable of lowering the total cholesterol | significantly reduced
